Source: ChEMBL document CHEMBL1201862, “PubChem BioAssay data set” (2004)
Active and inactive are the calls of the source.

How the values were obtained:
[1] = biological target: Alkaline phosphatase, placental type (Homo sapiens, UniProt P05187); assay: human placental alkaline phosphatase inhibition – biochemical, luminescence, confirmation (AID 1512); assay type: functional
[2] = biological target: T1, Alkaline phosphatase, tissue-nonspecific isozyme (Homo sapiens, UniProt P05186); assay: potency against alkaline phosphatase TNAP – biochemical, luminescent, dose response, SAR follow-up (AID 1056)
T1 sequence (P05186 whole entry): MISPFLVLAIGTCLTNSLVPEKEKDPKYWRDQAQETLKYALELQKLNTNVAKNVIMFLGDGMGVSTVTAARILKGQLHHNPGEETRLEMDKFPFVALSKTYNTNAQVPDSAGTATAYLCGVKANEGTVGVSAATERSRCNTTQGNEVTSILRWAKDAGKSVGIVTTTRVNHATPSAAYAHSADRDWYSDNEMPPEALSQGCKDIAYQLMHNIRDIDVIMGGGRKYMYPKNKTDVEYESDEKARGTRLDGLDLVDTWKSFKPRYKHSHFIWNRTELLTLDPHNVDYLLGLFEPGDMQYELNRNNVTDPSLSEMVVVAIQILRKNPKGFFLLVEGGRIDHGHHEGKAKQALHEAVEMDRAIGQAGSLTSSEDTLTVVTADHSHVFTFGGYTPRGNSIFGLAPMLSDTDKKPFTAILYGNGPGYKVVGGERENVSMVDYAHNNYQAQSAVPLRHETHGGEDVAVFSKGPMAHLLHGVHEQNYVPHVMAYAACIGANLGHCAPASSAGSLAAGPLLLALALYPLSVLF

[3] = biological target: Peroxisome proliferator-activated receptor gamma/Nuclear receptor coactivator 3 (Homo sapiens, UniProt P37231); assay: TR-FRET dose response biochemical High Throughput Screening assay for agonists of the steroid receptor coactivator 3 (SRC-3) recruitment by the peroxisome proliferator-activated receptor gamma (PPAR gamma): non-selective agonists. [Related pubchem assays: 1301 (Confirmation screen.), 1048 (Primary screen.)]; assay type: functional
[4] = biological target: Peroxisome proliferator-activated receptor gamma/Nuclear receptor coactivator 2 (Homo sapiens, UniProt P37231); assay: TR-FRET dose response biochemical High Throughput Screening assay for agonists of the steroid receptor coactivator 2 (SRC-2) recruitment by the peroxisome proliferator-activated receptor gamma (PPAR gamma): non-selective agonists. [Related pubchem assays: 1297, 1032 ]; assay type: functional
[5] = biological target: T2, Carboxy-terminal domain RNA polymerase II polypeptide A small phosphatase 1 (Homo sapiens, UniProt Q9GZU7); assay: CTDSP1 inhibitors, concentration-response, biochemical, absorbance readout, ultra-high-throughput screen actives (AID 540297); assay type: functional
T2 sequence (Q9GZU7 whole entry): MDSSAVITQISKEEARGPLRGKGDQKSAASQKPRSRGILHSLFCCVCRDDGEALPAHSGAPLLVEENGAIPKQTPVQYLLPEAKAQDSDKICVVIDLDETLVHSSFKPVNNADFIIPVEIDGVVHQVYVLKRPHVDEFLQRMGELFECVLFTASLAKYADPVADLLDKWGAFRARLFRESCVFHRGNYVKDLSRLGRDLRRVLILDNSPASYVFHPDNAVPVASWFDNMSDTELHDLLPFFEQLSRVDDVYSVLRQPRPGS

[6] = biological target: Peroxisome proliferator-activated receptor gamma/Nuclear receptor coactivator 1 (Homo sapiens, UniProt P37231); assay: TR-FRET dose response biochemical High Throughput Screening assay for agonists of the steroid receptor coactivator 1 (SRC-1) recruitment by the peroxisome proliferator-activated receptor gamma (PPAR gamma): non-selective agonists. [Related pubchem assays (depositor defined):AID1300, AID1808, AID504735, AID631]; assay type: protein assay
[7] = NIH3T3 cell viability loss – ATP luminescence, mouse fibroblasts, counter-screen, dose response (AID 2010); assay type: functional, cell-based;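 further: cells exposed to compound for about 90 hours before reading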
INS1 = assay: INS-1E survival protection against cytokine death – cell-based, luminescence, retest, dose response (AID 449756); assay type: functional; conditions: Rattus norvegicus;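 further: cell death triggered by IL-1 beta plus TNF-alpha plus IFN-gamma mixture; protective hits raise ATP signal compared with cytokine alone wells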
[8] = Trypanosoma cruzi growth suppression in host cells – NIH3T3 host cells, beta-gal luminescence, confirmation (AID 2044); assay type: functional, cell-based;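 further: intracellular parasites grown in NIH/3T3 mouse fibroblasts as host cells; luminescent beta-galactosidase reporter signal from transgenic T. cruzi replicating inside host cells; inhibitors lower the luminescence signal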
[9] = biological target: T3, Short transient receptor potential channel 4 (Mus musculus, UniProt Q9QUQ5); assay: block of DAMGO-driven TRPC4 calcium entry – cell-based, HEK293 TRPC4/mu-opioid, Fluo-4 calcium, dose response (AID 434942); assay type: functional;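 further: potency of inhibitors blocking the TRPC4 calcium response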
T3 sequence (Q9QUQ5 whole entry): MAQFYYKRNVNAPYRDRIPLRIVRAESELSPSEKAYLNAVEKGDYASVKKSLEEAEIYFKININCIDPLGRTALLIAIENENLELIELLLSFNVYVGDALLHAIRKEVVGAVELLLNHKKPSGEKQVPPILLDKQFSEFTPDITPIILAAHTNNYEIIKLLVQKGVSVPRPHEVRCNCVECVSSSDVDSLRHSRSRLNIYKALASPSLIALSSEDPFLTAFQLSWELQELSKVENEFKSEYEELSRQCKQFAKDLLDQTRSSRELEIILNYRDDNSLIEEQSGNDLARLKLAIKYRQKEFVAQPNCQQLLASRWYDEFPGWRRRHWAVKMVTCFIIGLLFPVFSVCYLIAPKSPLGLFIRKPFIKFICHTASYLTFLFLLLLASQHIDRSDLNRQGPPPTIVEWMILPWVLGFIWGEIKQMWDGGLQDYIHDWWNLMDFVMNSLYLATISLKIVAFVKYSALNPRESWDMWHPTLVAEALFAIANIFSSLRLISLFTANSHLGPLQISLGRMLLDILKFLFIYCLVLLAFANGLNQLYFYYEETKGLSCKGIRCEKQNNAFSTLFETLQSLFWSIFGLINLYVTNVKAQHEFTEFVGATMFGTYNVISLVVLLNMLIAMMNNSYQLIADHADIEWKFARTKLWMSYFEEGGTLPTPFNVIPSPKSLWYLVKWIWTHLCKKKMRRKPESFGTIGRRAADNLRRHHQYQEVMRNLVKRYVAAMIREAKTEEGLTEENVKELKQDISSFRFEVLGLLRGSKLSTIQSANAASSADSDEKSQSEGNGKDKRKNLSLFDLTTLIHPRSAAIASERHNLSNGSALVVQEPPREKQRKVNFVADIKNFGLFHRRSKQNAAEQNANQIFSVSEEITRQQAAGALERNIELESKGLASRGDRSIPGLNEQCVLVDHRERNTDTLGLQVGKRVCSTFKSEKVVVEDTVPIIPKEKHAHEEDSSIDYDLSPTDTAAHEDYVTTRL

Genome polyprotein = Genome polyprotein (dengue virus type 2, UniProt P29990); assay: flavivirus cap methylation enzyme inhibition – biochemical, confirmation dose response, primary screen (AID 588689); assay type: functional
[10] = biological target: FAD-linked sulfhydryl oxidase ALR (Homo sapiens, UniProt P55789); assay: ALR-catalysed DTT oxidation blockers – biochemical, H2O2 detection, luminescence, cherry-pick, dose response (AID 493248)
Vero [11] = assay: cells; assay type: functional, cell-based; conditions: Chlorocebus sabaeus
[12] = HEK-293T viability loss after treatment – luminescence, T-cell screen hits, cytotoxicity control for TCR NF-kB inhibitor project, dose response (AID 489026); assay type: functional, cell-based;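 further: cells exposed to compound about 14 hours before the viability readout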
[13] = biological target: T4, Microphthalmia-associated transcription factor (Homo sapiens, UniProt O75030); assay: reducers of TRPM1 reporter luminescence, concentration series – cell-based, SK-MEL-5, cherry-picked, set 3, MITF inhibitor project, dose response (AID 493073); assay type: functional;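 further: SK-MEL-5 melanoma cells with luciferase driven by the MITF target TRPM1 promoter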
T4 sequence (O75030 whole entry): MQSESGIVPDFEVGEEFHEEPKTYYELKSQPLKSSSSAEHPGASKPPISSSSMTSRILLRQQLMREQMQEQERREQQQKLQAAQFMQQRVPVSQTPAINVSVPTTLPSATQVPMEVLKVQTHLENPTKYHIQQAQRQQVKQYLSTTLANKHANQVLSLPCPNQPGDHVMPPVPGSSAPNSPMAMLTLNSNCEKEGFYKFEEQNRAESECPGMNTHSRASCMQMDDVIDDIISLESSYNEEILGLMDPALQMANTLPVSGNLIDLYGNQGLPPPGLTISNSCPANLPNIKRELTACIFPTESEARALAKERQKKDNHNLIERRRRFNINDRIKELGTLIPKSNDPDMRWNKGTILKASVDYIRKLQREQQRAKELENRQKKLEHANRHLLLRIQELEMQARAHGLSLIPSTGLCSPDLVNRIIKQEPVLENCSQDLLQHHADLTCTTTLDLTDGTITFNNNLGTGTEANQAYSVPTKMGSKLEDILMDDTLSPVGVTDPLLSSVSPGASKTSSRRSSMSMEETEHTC

cells [14] = assay: cells
cells [15] = assay type: functional
[16] = A cytotoxicity screen of small molecule inhibitors of the PhoP region in Salmonella typhi identified in the primary screen. [Related pubchem assays: 1850, 1864, 1985 ]; assay type: functional
Vero [17] = assay: cells; assay type: functional; conditions: Chlorocebus sabaeus
BJ [18] = assay: BJ-TERT-LT-ST fibroblast viability loss – cell-based, RAS-independent, luminescence, dose response (AID 1935); assay type: functional; conditions: Homo sapiens;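 further: BJ fibroblasts immortalized with TERT plus LT and ST oncogenes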
[19] = Luminescence Cell-Based Dose Response HTS to Identify Inhibitors of 5'UTR Stem-Loop Driven Prion Protein mRNA Translation in H4 Neuroglioblastoma Cells. [Related pubchem assays: 1827 (Project Summary), 1813 (Primary HTS)]; assay type: functional
[20] = alpha-synuclein stem-loop luciferase translation blockers – H4 neuroglioma cells, luminescence, confirmation (AID 1988); assay type: functional, cell-based
[21] = DRD fibroblast viability loss – cell-based, non-viral oncogenic, luminescence, dose response (AID 1934); assay type: functional; conditions: Homo sapiens
BJ [22] = assay: BJ-TERT fibroblast viability loss – cell-based, RAS-independent, luminescence, dose response (AID 1933); assay type: functional; conditions: Homo sapiens
[23] = Luminescence Cell-Based Dose Retest to Confirm Inhibitors of Cancer Stem Cells. [Related pubchem assays (depositor defined):AID2717, AID2721]; assay type: functional; conditions: Homo sapiens
[24] = luciferase reporter signal suppression in cells – H4 neuroglioma cells, luminescence, dose response (AID 1990); assay type: functional, cell-based
[25] = biological target: T5, High affinity choline transporter 1 (Homo sapiens, UniProt Q9GZV3); assay: human choline transporter blockers, potency – cell-based, 5-point CRC, membrane potential dye, dose response (AID 504840); assay type: functional
T5 sequence (Q9GZV3 whole entry): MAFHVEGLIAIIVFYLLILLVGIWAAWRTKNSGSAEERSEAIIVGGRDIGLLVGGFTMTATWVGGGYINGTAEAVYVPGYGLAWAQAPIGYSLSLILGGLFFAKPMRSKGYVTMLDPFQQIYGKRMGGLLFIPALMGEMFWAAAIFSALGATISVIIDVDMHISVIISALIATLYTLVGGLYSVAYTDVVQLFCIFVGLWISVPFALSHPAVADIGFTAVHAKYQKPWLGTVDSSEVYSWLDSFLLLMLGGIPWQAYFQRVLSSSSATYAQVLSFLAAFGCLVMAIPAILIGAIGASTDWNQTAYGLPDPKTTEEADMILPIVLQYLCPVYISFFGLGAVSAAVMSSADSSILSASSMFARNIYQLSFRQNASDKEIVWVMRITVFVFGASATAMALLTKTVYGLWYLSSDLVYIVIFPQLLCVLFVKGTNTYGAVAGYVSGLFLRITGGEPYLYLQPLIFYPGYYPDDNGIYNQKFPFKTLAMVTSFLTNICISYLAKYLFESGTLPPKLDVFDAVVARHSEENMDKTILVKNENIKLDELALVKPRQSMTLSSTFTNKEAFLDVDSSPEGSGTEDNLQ

Chain of Alkaline phosphatase, placental type (P05187 whole entry): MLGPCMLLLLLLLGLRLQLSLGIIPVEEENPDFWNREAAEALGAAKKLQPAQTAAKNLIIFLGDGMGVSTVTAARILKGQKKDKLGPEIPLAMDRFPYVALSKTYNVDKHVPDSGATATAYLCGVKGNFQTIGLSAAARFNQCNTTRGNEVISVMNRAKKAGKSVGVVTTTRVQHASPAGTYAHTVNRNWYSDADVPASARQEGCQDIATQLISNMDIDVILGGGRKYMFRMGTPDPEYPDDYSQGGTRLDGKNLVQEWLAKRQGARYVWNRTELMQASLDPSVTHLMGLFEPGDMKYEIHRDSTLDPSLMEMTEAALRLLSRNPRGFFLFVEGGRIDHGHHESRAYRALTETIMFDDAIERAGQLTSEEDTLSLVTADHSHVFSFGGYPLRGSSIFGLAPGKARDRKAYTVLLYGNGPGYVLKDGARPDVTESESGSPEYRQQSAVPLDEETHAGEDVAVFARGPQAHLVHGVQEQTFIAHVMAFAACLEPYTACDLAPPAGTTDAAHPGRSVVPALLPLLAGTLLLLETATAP
Chain of Peroxisome proliferator-activated receptor gamma/Nuclear receptor coactivator 1 (P37231 whole entry): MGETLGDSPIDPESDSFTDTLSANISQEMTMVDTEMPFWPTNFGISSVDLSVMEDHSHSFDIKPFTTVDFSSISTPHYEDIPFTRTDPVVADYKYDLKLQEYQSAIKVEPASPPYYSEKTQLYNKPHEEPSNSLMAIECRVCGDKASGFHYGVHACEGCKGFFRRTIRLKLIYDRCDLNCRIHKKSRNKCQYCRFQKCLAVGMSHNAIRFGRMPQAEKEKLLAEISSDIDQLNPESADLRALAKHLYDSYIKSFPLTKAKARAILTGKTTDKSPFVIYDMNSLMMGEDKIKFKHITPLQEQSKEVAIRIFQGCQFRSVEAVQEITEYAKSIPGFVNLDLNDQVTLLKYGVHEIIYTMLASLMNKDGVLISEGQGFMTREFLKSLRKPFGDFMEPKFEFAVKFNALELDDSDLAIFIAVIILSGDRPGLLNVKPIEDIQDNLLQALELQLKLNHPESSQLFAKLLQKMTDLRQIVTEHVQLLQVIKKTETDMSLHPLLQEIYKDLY
Chain of Peroxisome proliferator-activated receptor gamma/Nuclear receptor coactivator 1 (Q15788 whole entry, further chain): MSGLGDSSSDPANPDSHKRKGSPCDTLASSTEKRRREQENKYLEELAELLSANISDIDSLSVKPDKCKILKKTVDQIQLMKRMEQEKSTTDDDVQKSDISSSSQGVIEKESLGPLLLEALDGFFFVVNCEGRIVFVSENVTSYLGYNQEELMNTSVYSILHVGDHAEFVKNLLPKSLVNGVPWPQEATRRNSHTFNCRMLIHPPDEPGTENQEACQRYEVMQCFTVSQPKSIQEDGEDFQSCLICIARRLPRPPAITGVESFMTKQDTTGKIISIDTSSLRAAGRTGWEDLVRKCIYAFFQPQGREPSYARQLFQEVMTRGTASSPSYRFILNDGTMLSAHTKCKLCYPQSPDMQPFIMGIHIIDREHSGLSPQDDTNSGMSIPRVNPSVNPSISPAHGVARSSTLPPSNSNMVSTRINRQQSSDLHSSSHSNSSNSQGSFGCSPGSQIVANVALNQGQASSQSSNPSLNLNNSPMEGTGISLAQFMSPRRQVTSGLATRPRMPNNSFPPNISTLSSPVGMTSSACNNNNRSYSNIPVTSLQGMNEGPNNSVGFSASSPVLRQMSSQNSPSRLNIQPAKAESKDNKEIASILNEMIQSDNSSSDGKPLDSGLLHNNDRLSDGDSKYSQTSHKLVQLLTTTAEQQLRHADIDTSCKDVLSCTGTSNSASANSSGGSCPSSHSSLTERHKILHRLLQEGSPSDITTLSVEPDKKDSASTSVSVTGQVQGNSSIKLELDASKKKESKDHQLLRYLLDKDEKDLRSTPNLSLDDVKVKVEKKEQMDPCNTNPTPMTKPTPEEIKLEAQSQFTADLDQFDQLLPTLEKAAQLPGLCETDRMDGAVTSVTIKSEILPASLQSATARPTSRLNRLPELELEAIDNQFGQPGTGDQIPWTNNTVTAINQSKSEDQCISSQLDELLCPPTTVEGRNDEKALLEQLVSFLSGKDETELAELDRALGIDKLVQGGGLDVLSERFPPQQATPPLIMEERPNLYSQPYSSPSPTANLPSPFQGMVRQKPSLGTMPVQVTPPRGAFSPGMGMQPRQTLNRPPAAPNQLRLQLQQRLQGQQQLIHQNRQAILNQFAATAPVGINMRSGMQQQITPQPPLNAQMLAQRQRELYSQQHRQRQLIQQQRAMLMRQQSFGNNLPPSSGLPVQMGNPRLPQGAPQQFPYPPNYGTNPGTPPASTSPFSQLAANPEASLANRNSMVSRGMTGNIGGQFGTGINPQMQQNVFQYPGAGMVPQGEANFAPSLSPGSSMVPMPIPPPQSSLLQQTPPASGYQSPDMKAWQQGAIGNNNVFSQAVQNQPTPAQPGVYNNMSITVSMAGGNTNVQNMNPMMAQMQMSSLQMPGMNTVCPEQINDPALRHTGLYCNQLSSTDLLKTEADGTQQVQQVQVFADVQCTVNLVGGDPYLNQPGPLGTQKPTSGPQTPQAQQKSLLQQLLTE
Chain of Peroxisome proliferator-activated receptor gamma/Nuclear receptor coactivator 2 (P37231 whole entry, the tested form may be a part): as the sequence (P37231 whole entry) above
Chain of Peroxisome proliferator-activated receptor gamma/Nuclear receptor coactivator 2 (Q15596 whole entry, further chain, the tested form may be a part): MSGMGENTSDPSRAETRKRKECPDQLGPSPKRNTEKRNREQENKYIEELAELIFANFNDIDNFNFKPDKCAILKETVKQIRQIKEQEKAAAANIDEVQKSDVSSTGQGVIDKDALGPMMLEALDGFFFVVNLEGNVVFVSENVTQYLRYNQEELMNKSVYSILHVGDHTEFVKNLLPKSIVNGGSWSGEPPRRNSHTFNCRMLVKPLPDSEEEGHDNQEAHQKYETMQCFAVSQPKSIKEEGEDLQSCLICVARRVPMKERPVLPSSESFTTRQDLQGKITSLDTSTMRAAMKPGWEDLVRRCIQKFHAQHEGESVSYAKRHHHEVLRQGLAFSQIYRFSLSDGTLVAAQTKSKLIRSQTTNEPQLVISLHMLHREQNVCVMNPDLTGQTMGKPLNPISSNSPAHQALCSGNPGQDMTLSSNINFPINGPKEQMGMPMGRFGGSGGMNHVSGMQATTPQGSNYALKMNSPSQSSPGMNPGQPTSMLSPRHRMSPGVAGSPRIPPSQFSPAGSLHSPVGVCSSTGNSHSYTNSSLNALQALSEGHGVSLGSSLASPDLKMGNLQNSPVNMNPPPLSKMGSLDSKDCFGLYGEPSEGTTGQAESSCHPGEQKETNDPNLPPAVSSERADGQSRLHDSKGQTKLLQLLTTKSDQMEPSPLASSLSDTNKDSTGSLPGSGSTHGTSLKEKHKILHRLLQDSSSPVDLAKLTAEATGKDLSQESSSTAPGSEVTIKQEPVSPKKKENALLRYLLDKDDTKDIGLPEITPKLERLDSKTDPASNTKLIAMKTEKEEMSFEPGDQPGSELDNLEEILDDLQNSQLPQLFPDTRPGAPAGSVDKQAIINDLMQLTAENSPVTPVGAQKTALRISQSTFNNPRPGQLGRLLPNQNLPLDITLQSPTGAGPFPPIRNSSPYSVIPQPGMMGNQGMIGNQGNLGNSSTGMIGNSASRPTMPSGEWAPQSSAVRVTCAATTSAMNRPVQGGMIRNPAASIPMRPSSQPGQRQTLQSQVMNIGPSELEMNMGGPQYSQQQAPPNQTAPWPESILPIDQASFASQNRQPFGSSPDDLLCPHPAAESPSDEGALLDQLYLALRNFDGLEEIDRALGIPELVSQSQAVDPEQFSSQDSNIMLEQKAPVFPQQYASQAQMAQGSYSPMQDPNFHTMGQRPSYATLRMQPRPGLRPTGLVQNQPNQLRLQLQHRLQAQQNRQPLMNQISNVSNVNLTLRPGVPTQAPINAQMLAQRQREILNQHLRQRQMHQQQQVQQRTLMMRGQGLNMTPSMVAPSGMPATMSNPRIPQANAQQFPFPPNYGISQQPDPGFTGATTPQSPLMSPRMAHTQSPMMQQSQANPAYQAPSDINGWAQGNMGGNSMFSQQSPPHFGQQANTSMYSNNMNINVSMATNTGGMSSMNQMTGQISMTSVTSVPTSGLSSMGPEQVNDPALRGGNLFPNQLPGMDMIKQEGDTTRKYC
Chain of FAD-linked sulfhydryl oxidase ALR (P55789 whole entry): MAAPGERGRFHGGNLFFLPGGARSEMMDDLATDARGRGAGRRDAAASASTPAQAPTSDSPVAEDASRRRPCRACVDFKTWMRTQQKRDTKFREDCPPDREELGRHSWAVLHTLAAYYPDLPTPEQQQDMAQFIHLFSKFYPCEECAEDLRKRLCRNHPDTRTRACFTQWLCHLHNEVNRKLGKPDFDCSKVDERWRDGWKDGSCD

Nc1nnc(-c2cc3ccccc3oc2=O)s1
IC50 [1]: > 100 µM (inactive)
IC50 [2]: > 100 µM (inactive)

COc1ccc(CC(=O)NNC(=O)COc2ccc3ccccc3c2)cc1
EC50 [3]: 3.65 µM (active)
EC50 [4]: 1.93 µM (active)
IC50 [5]: 9.26 µM (active)
EC50 [6]: 2 µM (active)

c1ccc(CN2CCN(Cc3c[nH]c4ccccc34)CC2)cc1
EC50 [7]: > 30 µM (not active)
AC50 (INS1): 8.01 µM (active)
EC50 [8]: 0.277 µM (active)
EC50 [9]: 5.96 µM (active)

COc1cccc(/C=C2\SC(=S)N(NS(=O)(=O)c3ccc(C)cc3)C2=O)c1OC
IC50 (Genome polyprotein): 36.2 µM (active)
AC50 [10]: 9.05 µM (active)
EC50 [9]: 8.41 µM (active)

CCc1nccn1CC(=O)c1ccc(O)c(O)c1
IC50 [1]: 3.73 µM (active)
IC50 [2]: 62.5 µM (active)

CC(=O)Nc1ccc(CCNC(=O)c2ccc3ccccc3c2O)cc1
IC50 (Vero [11]): > 25 µM (active)

CC(=O)Nc1cc[n+](CC(=O)c2cccc([N+](=O)[O-])c2)cc1
IC50 (Vero [11]): 6.55 µM (active)

Cc1cc(C)cc(NC(=O)c2cc(C)n(Cc3cccs3)c2C)c1
IC50 [12]: > 80 µM (inactive)

Cc1ccccc1OCCn1c(C)nc2ccccc21
AC50 (INS1): 8.1 µM (active)
EC50 [9]: 1.19 µM (active)

Cc1ccc(OCC(=O)N/N=C/c2ccc([N+](=O)[O-])o2)cc1
EC50 [7]: > 60 µM (not active)
AC50 [13]: 8.9 µM (active)
EC50 (cells [14]): 0.078 µM (active)
EC50 [8]: < 0.1 µM (active)
IC50 (cells [15]): 3.01 µM (active)
EC50 [16]: > 50 µM (active)

CC(=O)/C=C1/C(=O)Nc2ccccc21
CC50 (Vero [17]): 21.9 µM (active)
IC50 (Vero [11]): > 25 µM (active)

Cc1cc(C)c2c(O)nc(SCC(=O)c3ccc(O)c(O)c3)nc2n1
IC50 [1]: 8.77 µM (active)
IC50 [2]: > 100 µM (inactive)

COc1cccc(-c2cc(O)c3cc(NC(=O)c4ccc(N(C)C)cc4)ccc3n2)c1
EC50 (BJ [18]): 0.729 µM (inconclusive)
EC50 [19]: 1.24 µM (active)
EC50 [20]: 0.296 µM (active)
EC50 [21]: 0.599 µM (active)
EC50 (BJ [22]): 0.664 µM (active)
AC50 [23]: 0.477 µM (active)
IC50 [12]: > 80 µM (inactive)
EC50 [24]: 0.334 µM (active)

O=C(CSc1ncnc2c1oc1ccccc12)Nc1cccc(C(F)(F)F)c1
EC50 [3]: > 79.4 µM (not active)
EC50 [4]: 23 µM (not active)
EC50 [6]: > 79.4 µM (inactive)

CC(=O)Nc1ccc(Nc2cc(C)c3ccccc3n2)cc1
IC50 [25]: 11.2 µM (active)

CC(C)COC(=O)CNc1nnc(S)nc1O
EC50 [3]: 37.9 µM (not active)
EC50 [4]: 3.42 µM (active)
EC50 [6]: 2.86 µM (active)
